Patent EP4745137A1 (Gluetacs Therapeutics (Shanghai) Co., Ltd., priority 2023, dated 2025)

How the values were obtained:
Type in all cases: cell-based
Details in all cases: 24 hours of compound treatment, 50 nM and 500 nM tested (concentration behind the class not stated)
[1] = molecular target: T1, WEE1 (Homo sapiens, UniProt P30291+Q96SW2); assay: Western-blot assay of substrate protein degradation in hPBMCs, WEE1
T1 construct: endogenous in cells; host or cells: hPBMCs (Milecell Biotechnologies)

[2] = molecular target: T2, IKZF1 (Homo sapiens, UniProt Q13422+Q96SW2); assay: Western-blot assay of substrate protein degradation in hPBMCs, IKZF1
T2 construct: endogenous in cells; host or cells: hPBMCs (Milecell Biotechnologies)

[3] = molecular target: T3, IKZF2 (Homo sapiens, UniProt Q96SW2+Q9UKS7); assay: Western-blot assay of substrate protein degradation in hPBMCs, IKZF2
T3 construct: endogenous in cells; host or cells: hPBMCs (Milecell Biotechnologies)

[4] = molecular target: T4, IKZF3 (Homo sapiens, UniProt Q96SW2+Q9UKT9); assay: Western-blot assay of substrate protein degradation in hPBMCs, IKZF3
T4 construct: endogenous in cells; host or cells: hPBMCs (Milecell Biotechnologies)

[5] = molecular target: T5, CK1α (Homo sapiens, UniProt P48729+Q96SW2); assay: Western-blot assay of substrate protein degradation in hPBMCs, CK1α
T5 construct: endogenous in cells; host or cells: hPBMCs (Milecell Biotechnologies)

[6] = molecular target: T6, GSPT1 (Homo sapiens, UniProt P15170+Q96SW2); assay: Western-blot assay of substrate protein degradation in hPBMCs, GSPT1
T6 construct: endogenous in cells; host or cells: hPBMCs (Milecell Biotechnologies)
T6 sequence (P15170 whole entry): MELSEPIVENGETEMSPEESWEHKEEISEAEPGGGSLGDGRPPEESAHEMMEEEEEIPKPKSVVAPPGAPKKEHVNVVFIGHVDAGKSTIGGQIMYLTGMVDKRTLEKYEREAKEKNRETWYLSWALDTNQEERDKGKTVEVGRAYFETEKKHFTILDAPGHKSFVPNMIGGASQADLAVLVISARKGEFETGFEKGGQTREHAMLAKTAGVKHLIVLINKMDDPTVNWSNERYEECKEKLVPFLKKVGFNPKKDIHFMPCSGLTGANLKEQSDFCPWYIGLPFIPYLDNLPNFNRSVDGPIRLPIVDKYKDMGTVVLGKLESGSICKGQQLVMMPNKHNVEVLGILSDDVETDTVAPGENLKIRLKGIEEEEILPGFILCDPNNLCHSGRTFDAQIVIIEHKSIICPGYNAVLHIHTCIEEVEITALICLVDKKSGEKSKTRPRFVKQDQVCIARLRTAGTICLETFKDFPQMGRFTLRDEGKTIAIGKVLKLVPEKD
T6 sequence (Q96SW2 whole entry): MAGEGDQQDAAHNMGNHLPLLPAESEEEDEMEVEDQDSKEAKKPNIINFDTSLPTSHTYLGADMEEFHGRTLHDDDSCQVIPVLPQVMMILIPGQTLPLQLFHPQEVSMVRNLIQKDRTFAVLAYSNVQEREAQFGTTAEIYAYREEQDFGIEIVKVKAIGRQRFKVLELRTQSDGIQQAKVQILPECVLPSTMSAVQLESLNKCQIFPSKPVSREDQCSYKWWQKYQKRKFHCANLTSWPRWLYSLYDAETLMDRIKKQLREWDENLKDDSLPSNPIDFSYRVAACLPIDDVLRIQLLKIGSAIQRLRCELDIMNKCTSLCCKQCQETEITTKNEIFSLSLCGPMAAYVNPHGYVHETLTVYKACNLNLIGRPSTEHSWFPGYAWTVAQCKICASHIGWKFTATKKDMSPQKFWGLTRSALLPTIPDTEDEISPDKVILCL
T6 sequence (Q16531 whole entry partner): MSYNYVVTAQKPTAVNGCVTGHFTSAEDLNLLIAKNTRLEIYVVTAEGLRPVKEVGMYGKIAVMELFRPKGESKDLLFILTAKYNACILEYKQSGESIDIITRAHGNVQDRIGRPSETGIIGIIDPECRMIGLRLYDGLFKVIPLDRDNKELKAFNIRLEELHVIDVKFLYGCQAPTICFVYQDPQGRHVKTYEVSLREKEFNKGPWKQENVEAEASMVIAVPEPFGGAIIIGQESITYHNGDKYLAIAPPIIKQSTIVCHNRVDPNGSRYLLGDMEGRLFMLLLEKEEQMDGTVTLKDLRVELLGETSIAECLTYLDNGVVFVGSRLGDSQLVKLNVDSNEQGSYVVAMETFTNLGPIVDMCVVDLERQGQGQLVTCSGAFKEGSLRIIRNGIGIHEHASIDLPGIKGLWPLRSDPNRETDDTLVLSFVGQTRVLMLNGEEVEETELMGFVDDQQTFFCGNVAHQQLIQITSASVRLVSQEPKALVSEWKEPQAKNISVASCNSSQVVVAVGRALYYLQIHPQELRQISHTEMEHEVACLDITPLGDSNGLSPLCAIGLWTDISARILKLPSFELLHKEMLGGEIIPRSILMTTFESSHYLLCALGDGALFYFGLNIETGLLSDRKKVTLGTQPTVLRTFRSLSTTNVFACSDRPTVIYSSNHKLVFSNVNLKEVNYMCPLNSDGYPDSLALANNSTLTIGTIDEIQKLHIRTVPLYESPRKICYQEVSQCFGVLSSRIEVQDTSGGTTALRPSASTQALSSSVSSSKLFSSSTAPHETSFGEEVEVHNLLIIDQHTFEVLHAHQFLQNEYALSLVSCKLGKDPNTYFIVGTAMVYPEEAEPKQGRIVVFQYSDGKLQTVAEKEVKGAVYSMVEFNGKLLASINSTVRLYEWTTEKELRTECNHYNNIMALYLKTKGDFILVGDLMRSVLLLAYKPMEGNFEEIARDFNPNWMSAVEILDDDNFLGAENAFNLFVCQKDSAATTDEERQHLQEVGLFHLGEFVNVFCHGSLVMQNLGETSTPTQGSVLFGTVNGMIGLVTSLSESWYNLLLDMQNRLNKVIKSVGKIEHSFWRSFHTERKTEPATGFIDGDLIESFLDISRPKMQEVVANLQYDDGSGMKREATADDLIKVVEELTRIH

T3 sequence (Q9UKS7 whole entry): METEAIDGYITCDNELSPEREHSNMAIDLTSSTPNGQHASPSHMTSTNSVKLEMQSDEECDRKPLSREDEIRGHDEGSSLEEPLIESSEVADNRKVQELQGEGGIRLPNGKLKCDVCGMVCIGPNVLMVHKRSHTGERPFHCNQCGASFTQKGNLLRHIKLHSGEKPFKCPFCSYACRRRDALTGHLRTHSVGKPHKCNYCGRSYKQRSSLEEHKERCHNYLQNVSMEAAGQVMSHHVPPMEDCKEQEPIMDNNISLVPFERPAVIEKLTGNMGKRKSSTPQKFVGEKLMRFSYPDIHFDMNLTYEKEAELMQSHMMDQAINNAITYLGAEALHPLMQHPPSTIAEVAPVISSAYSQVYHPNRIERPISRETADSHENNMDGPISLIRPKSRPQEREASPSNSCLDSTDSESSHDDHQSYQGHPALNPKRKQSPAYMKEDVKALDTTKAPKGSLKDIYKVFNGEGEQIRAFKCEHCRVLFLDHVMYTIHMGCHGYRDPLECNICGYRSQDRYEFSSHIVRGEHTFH
T3 sequence (Q96SW2 whole entry): as the sequence (Q96SW2 whole entry) above
T3 sequence (Q16531 whole entry partner): as the sequence (Q16531 whole entry partner) above
T4 sequence (Q9UKT9 whole entry): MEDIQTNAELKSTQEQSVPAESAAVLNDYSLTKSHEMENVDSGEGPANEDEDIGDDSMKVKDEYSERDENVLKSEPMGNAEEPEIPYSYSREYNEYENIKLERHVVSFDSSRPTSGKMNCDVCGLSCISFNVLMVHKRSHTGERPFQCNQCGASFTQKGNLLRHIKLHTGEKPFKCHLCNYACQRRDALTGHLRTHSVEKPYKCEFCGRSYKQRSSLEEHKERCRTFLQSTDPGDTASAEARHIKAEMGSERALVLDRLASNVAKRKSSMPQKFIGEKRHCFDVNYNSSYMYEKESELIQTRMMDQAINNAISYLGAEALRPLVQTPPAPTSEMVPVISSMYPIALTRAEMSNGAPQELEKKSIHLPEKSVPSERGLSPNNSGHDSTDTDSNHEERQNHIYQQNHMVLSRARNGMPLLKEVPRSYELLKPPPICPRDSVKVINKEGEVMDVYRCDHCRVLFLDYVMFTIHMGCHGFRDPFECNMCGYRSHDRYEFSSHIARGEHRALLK
T4 sequence (Q96SW2 whole entry): as the sequence (Q96SW2 whole entry) above
T4 sequence (Q16531 whole entry partner): as the sequence (Q16531 whole entry partner) above
T2 sequence (Q13422 whole entry): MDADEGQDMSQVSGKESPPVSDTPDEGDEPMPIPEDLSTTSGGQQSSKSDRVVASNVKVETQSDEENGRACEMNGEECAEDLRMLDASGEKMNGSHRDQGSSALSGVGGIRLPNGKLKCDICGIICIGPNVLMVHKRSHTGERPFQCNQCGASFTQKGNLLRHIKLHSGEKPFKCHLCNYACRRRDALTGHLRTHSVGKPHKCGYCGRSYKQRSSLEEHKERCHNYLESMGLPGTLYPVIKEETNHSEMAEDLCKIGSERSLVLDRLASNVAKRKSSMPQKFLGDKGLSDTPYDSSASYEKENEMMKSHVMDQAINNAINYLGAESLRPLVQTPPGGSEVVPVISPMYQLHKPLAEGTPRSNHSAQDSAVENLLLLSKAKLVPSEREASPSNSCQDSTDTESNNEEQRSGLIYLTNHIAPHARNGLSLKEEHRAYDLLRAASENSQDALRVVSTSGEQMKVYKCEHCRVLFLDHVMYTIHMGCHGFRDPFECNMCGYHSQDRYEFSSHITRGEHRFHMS
T2 sequence (Q96SW2 whole entry): as the sequence (Q96SW2 whole entry) above
T2 sequence (Q16531 whole entry partner): as the sequence (Q16531 whole entry partner) above
T1 sequence (P30291 whole entry): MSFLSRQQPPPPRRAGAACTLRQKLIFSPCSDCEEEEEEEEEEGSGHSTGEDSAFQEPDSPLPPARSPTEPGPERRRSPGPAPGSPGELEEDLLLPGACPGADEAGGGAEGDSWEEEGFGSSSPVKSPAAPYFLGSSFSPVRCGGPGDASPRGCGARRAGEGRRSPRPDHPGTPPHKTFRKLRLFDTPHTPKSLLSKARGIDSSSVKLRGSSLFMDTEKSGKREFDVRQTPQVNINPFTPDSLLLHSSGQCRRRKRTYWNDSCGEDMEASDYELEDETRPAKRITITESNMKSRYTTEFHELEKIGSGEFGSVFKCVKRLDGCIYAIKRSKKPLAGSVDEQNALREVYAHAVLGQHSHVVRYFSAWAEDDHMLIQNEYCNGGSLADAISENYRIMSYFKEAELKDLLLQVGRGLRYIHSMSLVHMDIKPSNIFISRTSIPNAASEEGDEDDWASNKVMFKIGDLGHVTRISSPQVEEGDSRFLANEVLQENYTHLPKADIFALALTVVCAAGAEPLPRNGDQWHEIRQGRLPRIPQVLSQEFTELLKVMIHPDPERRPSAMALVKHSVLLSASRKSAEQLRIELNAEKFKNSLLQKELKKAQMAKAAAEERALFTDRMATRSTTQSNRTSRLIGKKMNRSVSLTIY
T1 sequence (Q96SW2 whole entry): as the sequence (Q96SW2 whole entry) above
T1 sequence (Q16531 whole entry partner): as the sequence (Q16531 whole entry partner) above

| Structure (SMILES) | Weel substrate protein remaining % [1] | IKZF 1 substrate protein remaining % [2] | IKZF2 substrate protein remaining % [3] | IKZF3 substrate protein remaining % [4] | CK1a substrate protein remaining % [5] | GSPT1 substrate protein remaining % [6] |
| --- | --- | --- | --- | --- | --- | --- |
| O=C1CCC(N2C(=O)c3ccc(CN4C5CC4CN(c4cccc(Cl)c4Cl)C5)cc3C2=O)C(=O)N1 (stereo not drawn) [GT-06688, 5-((3-(2,3-dichlorophenyl)-3,6-diazabicyclo[3.1.1]heptan-6-yl)methyl)-2-(2,6-dioxopiperidin-3-yl)isoindoline-1,3-dione] | B (80%< substrate protein remaining %≤ 100%) | B (80%< substrate protein remaining %≤ 100%) | B (80%< substrate protein remaining %≤ 100%) | B (80%< substrate protein remaining %≤ 100%) | B (80%< substrate protein remaining %≤ 100%) | A (0% ≤ substrate protein remaining % ≤ 80%) |
| O=C1CCC(N2C(=O)c3ccc(CN4C[C@H]5C[C@@H]4CN5c4cccc(Cl)c4Cl)cc3C2=O)C(=O)N1 (stereo partly drawn) [GT-06690, 5-(((1R,4R)-5-(2,3-dichlorophenyl)-2,5-diazabicyclo[2.2.1]heptan-2-yl)methyl)-2-(2,6-dioxopiperidin-3-yl)isoindoline-1,3-dione] | B (80%< substrate protein remaining %≤ 100%) | B (80%< substrate protein remaining %≤ 100%) | B (80%< substrate protein remaining %≤ 100%) | A (0% ≤ substrate protein remaining % ≤ 80%) | B (80%< substrate protein remaining %≤ 100%) | A (0% ≤ substrate protein remaining % ≤ 80%) |
| O=C1CCC(N2C(=O)c3ccc(CN4C[C@@H]5C[C@H]4CN5c4cccc(Cl)c4Cl)cc3C2=O)C(=O)N1 (stereo partly drawn) [GT-06691, 5-(((1S,4S)-5-(2,3-dichlorophenyl)-2,5-diazabicyclo[2.2.1]heptan-2-yl)methyl)-2-(2,6-dioxopiperidin-3-yl)isoindoline-1,3-dione] | A (0% ≤ substrate protein remaining % ≤ 80%) | B (80%< substrate protein remaining %≤ 100%) | A (0% ≤ substrate protein remaining % ≤ 80%) | B (80%< substrate protein remaining %≤ 100%) | B (80%< substrate protein remaining %≤ 100%) | A (0% ≤ substrate protein remaining % ≤ 80%) |
| O=C1CCC(N2C(=O)c3ccc(CN4CC5CCC4CN5c4cccc(Cl)c4Cl)cc3C2=O)C(=O)N1 (stereo not drawn) [GT-06692, 5-((5-(2,3-dichlorophenyl)-2,5-diazabicyclo[2.2.2]octan-2-yl)methyl)-2-(2,6-dioxopiperidin-3-yl)isoindoline-1,3-dione] | A (0% ≤ substrate protein remaining % ≤ 80%) | B (80%< substrate protein remaining %≤ 100%) | A (0% ≤ substrate protein remaining % ≤ 80%) | B (80%< substrate protein remaining %≤ 100%) | B (80%< substrate protein remaining %≤ 100%) | A (0% ≤ substrate protein remaining % ≤ 80%) |
| O=C1CCC(N2C(=O)c3ccc(CN4CC5CCC(C4)N5c4cccc(Cl)c4Cl)cc3C2=O)C(=O)N1 (stereo not drawn) [GT-06693, 5-((8-(2,3-dichlorophenyl)-3,8-diazabicyclo[3.2.1]octan-3-yl)methyl)-2-(2,6-dioxopiperidin-3-yl)isoindoline-1,3-dione] | A (0% ≤ substrate protein remaining % ≤ 80%) | B (80%< substrate protein remaining %≤ 100%) | A (0% ≤ substrate protein remaining % ≤ 80%) | B (80%< substrate protein remaining %≤ 100%) | B (80%< substrate protein remaining %≤ 100%) | A (0% ≤ substrate protein remaining % ≤ 80%) |
| O=C1CCC(N2C(=O)c3ccc(CN4CCCN(c5cccc(Cl)c5Cl)CC4)cc3C2=O)C(=O)N1 (stereo not drawn) [GT-06695, 5-((4-(2,3-dichlorophenyl)-1,4-diazepan-1-yl)methyl)-2-(2,6-dioxopiperidin-3-yl)isoindoline-1,3-dione] | B (80%< substrate protein remaining %≤ 100%) | B (80%< substrate protein remaining %≤ 100%) | A (0% ≤ substrate protein remaining % ≤ 80%) | B (80%< substrate protein remaining %≤ 100%) | B (80%< substrate protein remaining %≤ 100%) | A (0% ≤ substrate protein remaining % ≤ 80%) |
| O=C1CCC(N2C(=O)c3ccc(CN4CCC(n5c(=O)[nH]c6cc(F)ccc65)CC4)cc3C2=O)C(=O)N1 (stereo not drawn) [GT-06704, 2-(2,6-dioxopiperidin-3-yl)-5-((4-(5-fluoro-2-oxo-2,3-dihydro-1H-benzo[d]imidazol-1-yl)piperidin-1-yl)methyl)isoindoline-1,3-dione] | B (80%< substrate protein remaining %≤ 100%) | B (80%< substrate protein remaining %≤ 100%) | B (80%< substrate protein remaining %≤ 100%) | A (0% ≤ substrate protein remaining % ≤ 80%) | B (80%< substrate protein remaining %≤ 100%) | A (0% ≤ substrate protein remaining % ≤ 80%) |
| O=C1CCC(N2C(=O)c3ccc(CN4CCN(c5c[nH]c6ncccc56)CC4)cc3C2=O)C(=O)N1 (stereo not drawn) [GT-06707, 5-((4-(1H-pyrrolo[2,3-b]pyridin-3-yl)piperazin-1-yl)methyl)-2-(2,6-dioxopiperidin-3-yl)isoindoline-1,3-dione] | A (0% ≤ substrate protein remaining % ≤ 80%) | B (80%< substrate protein remaining %≤ 100%) | B (80%< substrate protein remaining %≤ 100%) | A (0% ≤ substrate protein remaining % ≤ 80%) | A (0% ≤ substrate protein remaining % ≤ 80%) | A (0% ≤ substrate protein remaining % ≤ 80%) |
| O=C1CCC(N2C(=O)c3ccc(CN4CCN(c5nc(Cl)nc6c5SCC6)CC4)cc3C2=O)C(=O)N1 (stereo not drawn) [GT-06710, 5-((4-(2-chloro-6,7-dihydrothieno[3,2-d]pyrimidin-4-yl)piperazin-1-yl)methyl)-2-(2,6-dioxopiperidin-3-yl)isoindoline-1,3-dione] | B (80%< substrate protein remaining %≤ 100%) | B (80%< substrate protein remaining %≤ 100%) | A (0% ≤ substrate protein remaining % ≤ 80%) | B (80%< substrate protein remaining %≤ 100%) | B (80%< substrate protein remaining %≤ 100%) | A (0% ≤ substrate protein remaining % ≤ 80%) |
| O=C1CCC(N2C(=O)c3ccc(CN4CCc5sccc5C4)cc3C2=O)C(=O)N1 (stereo not drawn) [GT-06762, 5-((6,7-dihydrothieno[3,2-c]pyridin-5(4H)-yl)methyl)-2-(2,6-dioxopiperidin-3-yl)isoindoline-1,3-dione] | A (0% ≤ substrate protein remaining % ≤ 80%) | A (0% ≤ substrate protein remaining % ≤ 80%) | B (80%< substrate protein remaining %≤ 100%) | B (80%< substrate protein remaining %≤ 100%) | A (0% ≤ substrate protein remaining % ≤ 80%) | B (80%< substrate protein remaining %≤ 100%) |
| O=C1CCC(N2C(=O)c3ccc(CN4CCN(c5nsc6ccccc56)CC4)cc3C2=O)C(=O)N1 (stereo not drawn) [GT-06763, 5-((4-(benzo[d]isothiazol-3-yl)piperazin-1-yl)methyl)-2-(2,6-dioxopiperidin-3-yl)isoindoline-1,3-dione] | A (0% ≤ substrate protein remaining % ≤ 80%) | A (0% ≤ substrate protein remaining % ≤ 80%) | B (80%< substrate protein remaining %≤ 100%) | B (80%< substrate protein remaining %≤ 100%) | A (0% ≤ substrate protein remaining % ≤ 80%) | A (0% ≤ substrate protein remaining % ≤ 80%) |
| O=C1CCC(N2C(=O)c3ccc(CN4CCN(Cc5ccc(C67CC8CC(CC(C8)C6)C7)cc5)CC4)cc3C2=O)C(=O)N1 (stereo not drawn) [GT-06810, 5-((4-(4-((3r,5r,7r)-adamantan-1-yl)benzyl)piperazin-1-yl)methyl)-2-(2,6-dioxopiperidin-3-yl)isoindoline-1,3-dione] | B (80%< substrate protein remaining %≤ 100%) | A (0% ≤ substrate protein remaining % ≤ 80%) | A (0% ≤ substrate protein remaining % ≤ 80%) | A (0% ≤ substrate protein remaining % ≤ 80%) | A (0% ≤ substrate protein remaining % ≤ 80%) | A (0% ≤ substrate protein remaining % ≤ 80%) |
| O=C1CCC(N2C(=O)c3ccc(CN4CCCC(C5CCNCC5)C4)cc3C2=O)C(=O)N1 (stereo not drawn) [GT-06881, 5-([3,4'-bipiperidin]-1-ylmethyl)-2-(2,6-dioxopiperidin-3-yl)isoindoline-1,3-dione] | B (80%< substrate protein remaining %≤ 100%) | B (80%< substrate protein remaining %≤ 100%) | B (80%< substrate protein remaining %≤ 100%) | B (80%< substrate protein remaining %≤ 100%) | A (0% ≤ substrate protein remaining % ≤ 80%) | A (0% ≤ substrate protein remaining % ≤ 80%) |
